Source: patent US20130203649A1, “INHIBITORS OF TLR SIGNALING BY TARGETING TIR DOMAIN INTERFACES” (UNIVERSITY OF MARYLAND, BALTIMORE, priority 2012, published 2013)
Residues, ends and D or L forms follow the SMILES beside them. No end group written: not given here.

Key:
[1] = test system: TLR4; assay: LPS-induced cytokine mRNA expression in mouse macrophages (real-time RT-PCR); assay type: cell-based; settings: for LPS-induced IFNβ and Rantes cytokine mRNA production / LPS-induced IL-1β mRNA production: 5 μM peptide; for LPS-induced IFNβ and Rantes cytokine mRNA production / LPS-induced IL-1β mRNA production / LPS-induced IL-1β, IFNβ, and RANTES mRNA / LPS-induced TNFα mRNA expression: LPS 10 ng/ml, 1 h
Description: C57BL/6J mice were obtained from The Jackson Laboratory (Bar Harbor, Me.). Primary peritoneal macrophages were obtained by peritoneal lavage 4 days after intraperitoneal injection (3 ml) of sterile 3% thioglycolate broth. Washed cells were resuspended in RPMI 1640 which contained 2% FBS, 1% penicillin:streptomycin and 2 mM L-glutamine. After plating, cells were incubated overnight at 37° C. and then washed with PBS to remove non-adherent cells. Cells were exposed to peptides 30 min before stimulation with a TLR agonist.
Total cellular RNA was isolated using Tripure from Roche (San Francisco, Calif.) following manufacture's protocol. RNA was then reverse transcribed using AMV Reverse Transcriptase from Promega (Madison, Wis.) with poly-T priming as per manufacturer's directions. cDNA was then quantified by real-time PCR using Applied Biosystems Fast SYBR Green PCR Master Mix and an ABI Prism 7500HT cycler. Primers used for detection: hypoxanthine phosphoribosyltransferase (HPRT) (forward: […] (SEQ ID NO:51), reverse: […] (SEQ ID NO:52)), TNFα (forward: […] (SEQ ID NO:53), reverse: […] (SEQ ID NO:54)), IL-1β (forward: […] (SEQ ID NO:55), reverse: […] (SEQ ID NO:56)), IFNβ (forward: […] (SEQ ID NO:57), reverse: CTCGGACCACCATCCAGG (SEQ ID NO:58)) and RANTES (forward: […] (SEQ ID NO:59), reverse: […] (SEQ ID NO:60)). The primers were designed using Primer Express 2.0 (Applied Biosystems). Using HPRT as reference, the ΔCt method was used to calculate relative gene expression. One-way ANOVA was preformed, as well as Dunnett's multiple comparison post hoc test with a p≦0.01 selected as the level of significance.
Total RNA was isolated with Nucleospin RNA II kits (Macherey-Nagel, Bethlehem, Pa.), followed by DNase digestion. cDNA was synthesized from 1 μg RNA using Goscript transcriptase (Promega), and subjected to real-time PCR with gene-specific primers for HPRT, TNF-α, IL-1β, IFNβ, and RANTES on H7900 ABI system using Fast SYBR Green master mix (Applied Biosystems, Foster City, Calif.).
To evaluate peptide-inhibitory activities, we first measured LPS-induced cytokine mRNA expression. […] […] Decoy peptide TM4 is derived from the BB loop of TRAM TIR; we previously identified this peptide as an effective TLR4 inhibitor (19).

[2] = test system: C57BL/6J mice; assay: In vivo efficiency of decoy peptides (Table 1; LPS challenge in mice); design: species or system mouse
Description: FIG. 4. Effect of select TRAP decoy peptides on TNF-α and IL-6 in blood following an ip LPS challenge. C57BL/6J mice were injected with TR5, TR6, or TR7 peptide or mock-treated 1 hour before injection of purified E. coli LPS. Peptides and LPS were injected to mice intraperitonealy 10 nmol or 1 μg per gram of animal weight, correspondingly.
FIG. 10. […] (A-E) C57BL/6J mice were injected i.p. with purified Escherichia coli K235 LPS (1 μg/g) or PBS. Peptides (10 nmol/g of animal weight) were injected i.p. (A, B, D, E) or i.v. (C) 1 h before (A, B, and C) or 30 min after (D, E) i.p. injection of LPS. Data in panels A and D show plasma IL-6 and TNF-α levels measured 2 h after LPS challenge. Peptide TM8/9 was used as a non-inhibitory control peptide. Data represent the means±s.e.m. for 6-12 blood samples obtained in at least three independent experiments. *p<0.01. (F, G) C57BL/6J mice were challenged i.p. with a lethal LPS dose (17.5 μg/g). Peptides (10 nmol/g) were injected i.p. 1 h before LPS challenge. […] The statistical significance of changes in mortality and survival time was determined by the Mantel Cox log-rank test using GraphPad Prism software (Version 5.04). *p<0.01.
Eight-week-old C57BL/6J mice were injected with 1 or 17.5 μg/g animal weight of E. coli K235 LPS i.p. Peptides reconstituted in PBS were administered i.p. or i.v. Control groups received equivalent volume of solvent (PBS). The blood samples were collected 1, 2, 4, and 8 h, or 2, 8, and 24 h after LPS challenge. The plasma samples were obtained and kept frozen until TNF-α and IL-6 were measured by ELISA. Survival of animals was monitored every 6-16 h after LPS challenge. All animal experiments were carried out with institutional approval.

[3] = target: T1, TLR2/TLR1 heterodimer (Mus musculus, UniProt Q9QUN7); assay: P3C-induced IL-6 and TNF-α secretion by macrophages (ELISA); assay type: cell-based; settings: supernatants 5 h after P3C 500 ng/ml
T1 construct: endogenous in cells; host or cells: thioglycollate-elicited mouse peritoneal macrophages
T1 sequence (Q9QUN7 25-784, one chain of several): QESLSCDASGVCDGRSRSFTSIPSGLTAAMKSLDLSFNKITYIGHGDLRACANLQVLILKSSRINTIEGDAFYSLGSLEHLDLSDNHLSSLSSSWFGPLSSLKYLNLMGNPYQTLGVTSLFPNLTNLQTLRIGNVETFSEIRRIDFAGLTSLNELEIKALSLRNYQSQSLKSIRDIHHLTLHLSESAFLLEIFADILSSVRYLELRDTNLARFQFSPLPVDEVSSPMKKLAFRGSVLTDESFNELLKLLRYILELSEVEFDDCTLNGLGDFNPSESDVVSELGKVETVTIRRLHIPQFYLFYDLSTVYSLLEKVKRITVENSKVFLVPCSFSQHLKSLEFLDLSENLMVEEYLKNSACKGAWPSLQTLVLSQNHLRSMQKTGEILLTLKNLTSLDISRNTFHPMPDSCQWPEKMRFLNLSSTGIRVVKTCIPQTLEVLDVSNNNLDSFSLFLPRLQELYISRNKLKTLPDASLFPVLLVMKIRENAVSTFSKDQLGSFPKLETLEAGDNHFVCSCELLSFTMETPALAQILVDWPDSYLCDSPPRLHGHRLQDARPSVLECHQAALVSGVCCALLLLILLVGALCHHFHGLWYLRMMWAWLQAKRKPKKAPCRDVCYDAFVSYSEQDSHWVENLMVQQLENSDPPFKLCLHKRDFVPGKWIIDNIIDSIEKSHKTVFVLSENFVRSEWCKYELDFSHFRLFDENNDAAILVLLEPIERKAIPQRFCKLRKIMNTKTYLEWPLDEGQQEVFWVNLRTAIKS
Description: FIG. 3. Effect of TIRAP decoy peptides on TLR2 signaling. Thioglycollate-elicited macrophages were incubated in the presence of 20 (black columns) or 40 μM (open columns) of a decoy peptide for 30 min prior to stimulation with P3C (500 ng/ml) (A and C) or P2C (50 ng/ml) (B). Cytokine mRNA expression was measured 1 h after TLR2 stimulation and is normalized to the expression of HPRT gene. C. IL-6 and TNF-α were measured by ELISA in macrophage supernatants collected 5 h after P3C (500 ng/ml) stimulation. D. Peptides TR3 and TR6 inhibit ERK activation induced by TLR2 agonist, P3C. ERK phosphorylation was measured by Western analysis in primary macrophage stimulated by P3C for 30 min.
Cytokine secretion was measured in supernatant samples collected at 6 or 24 h time points and stored at −80° C. Samples were analyzed by a multiplex assay at the University of Maryland Baltimore Cytokine Core Facility using a Luminex 100 reader and Softmax Pro software, or by ELISA kits for mouse IL-6 or TNF-α from BioLegend (San Diego, Calif.) and LT-4000 microplate reader.
Because of the role TRAP plays in TLR2 signaling, TIRAP TIR-derived decoy peptide effects on TLR2-induced cytokine mRNA expression were examined. […] To confirm the inhibitory effect of TR3 and TR6 on P3C-induced signaling, IL-6 and TNF-α concentration was measured in macrophage supernatants collected 5 h after stimulation of cells with P3C. […]

| Molecule | LPS-induced IFNβ and Rantes cytokine mRNA production [1] | LPS-induced IL-1β mRNA production [1] | LPS-induced IL-1β, IFNβ, and RANTES mRNA ([1]; 20 μM peptide) | LPS-induced TNFα mRNA expression ([1]; 20 μM peptide) | In vivo efficiency [2] | LPS-induced (TLR4-mediated) cytokine mRNA expression ([1]; 5 or 20 μM peptide 30 min before LPS, 1 or 5 h) | P3C-induced IL-6 and TNF-α secretion [3] | LPS-induced transcriptional activation of IL-1β and IFN-β genes ([1]; 20 μM peptide) |
| --- | --- | --- | --- | --- | --- | --- | --- | --- |
| RQIKIWFQNRRMKWKKAAYPPELRFMYYVD [TR9] | significantly inhibited | moderately inhibited | stronger inhibition | inhibit potently |  |  |  |  |
| RQIKIWFQNRRMKWKKGGFYQVKEAVIHY [TR11] | significantly inhibited | moderately inhibited | stronger inhibition | inhibit potently |  |  |  |  |
| RQIKIWFQNRRMKWKKCLQDAIDHSGFT [TF5] |  |  |  |  | Yes, i.p. | inhibit |  |  |
| RQIKIWFQNRRMKWKKEGSQASLRCF [TR3] | significantly inhibited | moderately inhibited | stronger inhibition | inhibit potently |  |  | profoundly inhibited |  |
| RQIKIWFQNRRMKWKKPGFLRDPWCKYQML [TR6] | significantly inhibited | moderately inhibited | stronger inhibition | inhibit potently | yes, i.p. |  | profoundly inhibited | blocked |
| CC[C@H](C)[C@H](NC(=O)[C@H](CCCCN)NC(=O)[C@@H](NC(=O)[C@H](CCC(N)=O)NC(=O)[C@@H](N)CCCNC(=N)N)[C@@H](C)CC)C(=O)N[C@@H](Cc1c[nH]c2ccccc12)C(=O)N[C@@H](Cc1ccccc1)C(=O)N[C@@H](CCC(N)=O)C(=O)N[C@@H](CC(N)=O)C(=O)N[C@@H](CCCNC(=N)N)C(=O)N[C@@H](CCCNC(=N)N)C(=O)N[C@@H](CCSC)C(=O)N[C@@H](CCCCN)C(=O)N[C@@H](Cc1c[nH]c2ccccc12)C(=O)N[C@@H](CCCCN)C(=O)N[C@@H](CCCCN)C(=O)N[C@@H](CCC(=O)O)C(=O)N[C@@H](CC(C)C)C(=O)N[C@@H](CS)C(=O)N[C@@H](CCC(N)=O)C(=O)N[C@@H](C)C(=O)N[C@@H](CC(C)C)C(=O)N[C@@H](CO)C(=O)N[C@@H](CCCNC(=N)N)C(=O)N[C@@H](CO)C(=O)N[C@@H](Cc1c[nH]cn1)C(=O)N[C@@H](CS)C(=O)N[C@@H](CCCNC(=N)N)C(=O)O [TR5] (H-RQIKIWFQNRRMKWKKELCQALSRSHCR-OH) | significantly inhibited | moderately inhibited | stronger inhibition | inhibit potently | yes, i.p. |  |  |  |
